According to the supplement of paper PMC10307832:

Columns and labels:
Assay in all cases: relative viability (nuclei count vs DMSO), 5 days (fraction); higher = more cells survive
[1] = compound: Cn1cncc1[C@@](N)(c1ccc(Cl)cc1)c1ccc2c(c1)c(-c1cccc(Cl)c1)cc(=O)n2C [Tipifarnib] + CCNC(=O)c1noc(-c2cc(C(C)C)c(O)cc2O)c1-c1ccc(CN2CCOCC2)cc1 [Luminespib] (partner 0.01 µM)
Summary of the method: (§1)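 Each reported value is a median over duplicate plates. It expresses relative viability: treated-well nuclei count divided by vehicle-well nuclei count. Lung cancer cell lines in 1536-well plates were dosed by pin tool a day after seeding, alone with one drug or with a fixed anchor-drug dose plus five library-drug doses (not always all listed) in √10 steps, and nuclei were counted after 5 days.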

[2] = compound: Cn1cncc1[C@@](N)(c1ccc(Cl)cc1)c1ccc2c(c1)c(-c1cccc(Cl)c1)cc(=O)n2C [Tipifarnib] + CC(C)C[C@H](NC(=O)[C@H](Cc1ccccc1)NC(=O)c1cnccn1)B(O)O [Bortezomib] (partner 0.002 µM)
Summary of the method: as §1

[3] = compound: Cn1cncc1[C@@](N)(c1ccc(Cl)cc1)c1ccc2c(c1)c(-c1cccc(Cl)c1)cc(=O)n2C [Tipifarnib] + Cc1nc(Nc2ncc(C(=O)Nc3c(C)cccc3Cl)s2)cc(N2CCN(CCO)CC2)n1 [Dasatinib] (partner 0.075 µM)
Summary of the method: as §1

[4] = compound: Cn1cncc1[C@@](N)(c1ccc(Cl)cc1)c1ccc2c(c1)c(-c1cccc(Cl)c1)cc(=O)n2C [Tipifarnib] + CC(=O)c1c(C)c2cnc(Nc3ccc(N4CCNCC4)cn3)nc2n(C2CCCC2)c1=O [Palbociclib] (partner 0.5 µM)
Summary of the method: as §1

| Cell Line | relative viability ([1]; first compound 0.01 µM) | relative viability ([1]; first compound 0.03162 µM) | relative viability ([1]; first compound 0.1 µM) | relative viability ([1]; first compound 0.3162 µM) | relative viability ([1]; first compound 1 µM) | relative viability ([2]; first compound 0.01 µM) | relative viability ([2]; first compound 0.03162 µM) | relative viability ([2]; first compound 0.1 µM) | relative viability ([2]; first compound 0.3162 µM) | relative viability ([2]; first compound 1 µM) | relative viability ([3]; first compound 0.01 µM) | relative viability ([3]; first compound 0.03162 µM) | relative viability ([3]; first compound 0.1 µM) | relative viability ([3]; first compound 0.3162 µM) | relative viability ([3]; first compound 1 µM) | relative viability ([4]; first compound 0.01 µM) | relative viability ([4]; first compound 0.03162 µM) | relative viability ([4]; first compound 0.1 µM) | relative viability ([4]; first compound 0.3162 µM) | relative viability ([4]; first compound 1 µM) |
| --- | --- | --- | --- | --- | --- | --- | --- | --- | --- | --- | --- | --- | --- | --- | --- | --- | --- | --- | --- | --- |
| NCI-H1792 | 0.505 | 0.329 | 0.379 | 0.268 | 0.262 | 0.967 | 0.877 | 0.661 | 0.621 | 0.432 | 1.01 | 0.821 | 0.571 | 0.524 | 0.484 | 0.642 | 0.621 | 0.522 | 0.512 | 0.479 |
| NCI-H1355 | 0.76 | 0.61 | 0.525 | 0.532 | 0.433 | 1.17 | 0.992 | 0.806 | 0.722 | 0.813 | 0.684 | 0.687 | 0.524 | 0.496 | 0.443 | 0.399 | 0.398 | 0.351 | 0.325 | 0.322 |
| SW 1573 | 0.208 | 0.164 | 0.239 | 0.166 | 0.187 | 1.13 | 0.752 | 0.691 | 0.45 | 0.49 | 0.379 | 0.33 | 0.297 | 0.217 | 0.198 | 0.427 | 0.239 | 0.211 | 0.183 | 0.186 |
| NCI-H2347 | 0.671 | 0.298 | 0.401 | 0.386 | 0.28 | 0.897 | 0.469 | 0.751 | 0.698 | 0.738 | 0.278 | 0.293 | 0.256 | 0.303 | 0.277 | 0.361 | 0.388 | 0.398 | 0.381 | 0.361 |
| LCLC-97TM1 | 0.799 | 0.751 | 0.662 | 0.52 | 0.574 | 0.317 | 0.582 | 0.404 | 0.33 | 0.117 | 0.833 | 0.704 | 0.745 | 0.64 | 0.383 | 0.222 | 0.154 | 0.202 | 0.202 | 0.236 |
| EMC-BAC-2 | 1.27 | 0.907 | 0.974 | 0.847 | 0.752 | 1.03 | 1 | 0.937 | 0.924 | 0.749 | 0.324 | 0.336 | 0.319 | 0.305 | 0.258 | 0.501 | 0.469 | 0.494 | 0.463 | 0.465 |
| NCI-H1975 | 0.235 | 0.282 | 0.163 | 0.172 | 0.106 | 0.49 | 0.283 | 0.311 | 0.214 | 0.2 | 0.383 | 0.356 | 0.412 | 0.238 | 0.185 | 0.615 | 0.536 | 0.524 | 0.39 | 0.35 |
| BEN | 0.324 | 0.459 | 0.226 | 0.17 | 0.351 | 0.81 | 0.81 | 0.628 | 0.652 | 0.604 | 0.313 | 0.294 | 0.321 | 0.255 | 0.254 | 0.587 | 0.475 | 0.488 | 0.455 | 0.451 |
| NCI-H23 | 0.243 | 0.242 | 0.223 | 0.199 | 0.24 | 1.27 | 0.751 | 0.636 | 0.36 | 0.25 | 0.76 | 0.711 | 0.667 | 0.473 | 0.282 | 0.577 | 0.397 | 0.405 | 0.35 | 0.341 |
| NCI-H520 | 0.235 | 0.233 | 0.207 | 0.207 | 0.23 | 0.506 | 0.203 | 0.636 | 0.246 | 0.173 | 0.163 | 0.185 | 0.183 | 0.163 | 0.142 | 0.181 | 0.238 | 0.254 | 0.162 | 0.2 |
| CAL-12T | 0.284 | 0.335 | 0.267 | 0.151 | 0.15 | 0.791 | 0.75 | 0.714 | 0.719 | 0.318 | 0.256 | 0.287 | 0.519 | 0.198 | 0.18 | 0.512 | 0.302 | 0.377 | 0.21 | 0.13 |
| EPLC-272H | 0.196 | 0.267 | 0.233 | 0.378 | 0.173 | 0.987 | 0.195 | 0.634 | 0.577 | 0.311 | 0.417 | 0.285 | 0.296 | 0.304 | 0.158 | 0.358 | 0.265 | 0.328 | 0.298 | 0.263 |
| LCLC-103H | 0.991 | 0.892 | 0.693 | 0.662 | 0.521 | 1.06 | 0.79 | 0.973 | 0.832 | 0.581 | 0.47 | 0.441 | 0.426 | 0.345 | 0.328 | 0.483 | 0.384 | 0.491 | 0.411 | 0.571 |
| NCI-H2405 | 0.71 | 0.584 | 0.525 | 0.606 | 0.527 | 0.983 | 0.909 | 0.985 | 0.923 | 0.61 | 0.188 | 0.208 | 0.219 | 0.228 | 0.217 | 0.562 | 0.517 | 0.525 | 0.492 | 0.517 |
| HCC-15 | 0.332 | 0.306 | 0.245 | 0.302 | 0.357 | 0.921 | 0.746 | 0.868 | 0.613 | 0.196 | 0.627 | 0.556 | 0.444 | 0.377 | 0.168 | 0.694 | 0.653 | 0.566 | 0.417 | 0.405 |
| PC-3 [JPC-3] | 0.74 | 0.694 | 0.66 | 0.458 | 0.409 | 0.873 | 0.629 | 0.698 | 0.609 | 0.427 | 1.01 | 0.994 | 0.99 | 0.679 | 0.532 | 0.458 | 0.553 | 0.642 | 0.497 | 0.495 |
